Test results as given in publication PMC4457528, “Identification of Novel Small Molecule Inhibitors of Oncogenic RET Kinase” (PLoS ONE, 2015).
Where two headings read alike, the source gives them in different places.

Key:
Test in all cases: KinomeScan kinase panel, single concentration 10 µM
Assay type in all cases: binding
KinomeScan kinase panel [1] = target: T1, KinomeScan kinase panel (Homo sapiens, UniProt P07333); conditions: CSF1R, 10 µM; read-out: score (%)
T1 construct: purchased DiscoveRx (KinomeScan)
T1 sequence (P07333 20-972): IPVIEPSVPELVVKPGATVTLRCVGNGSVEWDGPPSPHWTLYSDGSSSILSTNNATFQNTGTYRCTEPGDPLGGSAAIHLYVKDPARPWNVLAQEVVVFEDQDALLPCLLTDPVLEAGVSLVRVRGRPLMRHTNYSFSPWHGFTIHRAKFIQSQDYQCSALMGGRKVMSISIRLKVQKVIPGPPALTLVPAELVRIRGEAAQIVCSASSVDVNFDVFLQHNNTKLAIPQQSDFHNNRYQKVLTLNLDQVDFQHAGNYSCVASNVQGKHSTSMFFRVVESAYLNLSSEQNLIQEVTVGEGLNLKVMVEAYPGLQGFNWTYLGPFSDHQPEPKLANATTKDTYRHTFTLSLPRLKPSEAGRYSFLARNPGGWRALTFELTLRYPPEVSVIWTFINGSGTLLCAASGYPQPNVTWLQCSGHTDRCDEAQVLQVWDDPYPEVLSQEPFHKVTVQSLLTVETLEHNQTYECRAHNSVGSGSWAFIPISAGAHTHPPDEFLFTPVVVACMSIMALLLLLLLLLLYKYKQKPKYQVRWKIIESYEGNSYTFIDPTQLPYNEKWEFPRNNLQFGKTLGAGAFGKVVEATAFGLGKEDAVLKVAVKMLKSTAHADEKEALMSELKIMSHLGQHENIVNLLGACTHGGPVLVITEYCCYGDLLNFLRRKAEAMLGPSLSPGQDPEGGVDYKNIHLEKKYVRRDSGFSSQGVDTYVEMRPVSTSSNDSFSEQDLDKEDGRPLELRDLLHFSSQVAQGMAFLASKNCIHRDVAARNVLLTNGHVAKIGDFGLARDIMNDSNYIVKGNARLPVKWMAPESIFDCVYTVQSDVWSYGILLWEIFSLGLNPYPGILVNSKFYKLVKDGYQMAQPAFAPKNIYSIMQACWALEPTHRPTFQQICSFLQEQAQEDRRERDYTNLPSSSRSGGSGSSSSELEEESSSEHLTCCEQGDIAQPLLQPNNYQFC

KinomeScan kinase panel [2] = target: T2, KinomeScan kinase panel (Homo sapiens, UniProt P36888, D835H); conditions: FLT3(D835H), 10 µM; read-out: score (%)
T2 construct: purchased DiscoveRx (KinomeScan)
T2 sequence (P36888 27-993 D835H): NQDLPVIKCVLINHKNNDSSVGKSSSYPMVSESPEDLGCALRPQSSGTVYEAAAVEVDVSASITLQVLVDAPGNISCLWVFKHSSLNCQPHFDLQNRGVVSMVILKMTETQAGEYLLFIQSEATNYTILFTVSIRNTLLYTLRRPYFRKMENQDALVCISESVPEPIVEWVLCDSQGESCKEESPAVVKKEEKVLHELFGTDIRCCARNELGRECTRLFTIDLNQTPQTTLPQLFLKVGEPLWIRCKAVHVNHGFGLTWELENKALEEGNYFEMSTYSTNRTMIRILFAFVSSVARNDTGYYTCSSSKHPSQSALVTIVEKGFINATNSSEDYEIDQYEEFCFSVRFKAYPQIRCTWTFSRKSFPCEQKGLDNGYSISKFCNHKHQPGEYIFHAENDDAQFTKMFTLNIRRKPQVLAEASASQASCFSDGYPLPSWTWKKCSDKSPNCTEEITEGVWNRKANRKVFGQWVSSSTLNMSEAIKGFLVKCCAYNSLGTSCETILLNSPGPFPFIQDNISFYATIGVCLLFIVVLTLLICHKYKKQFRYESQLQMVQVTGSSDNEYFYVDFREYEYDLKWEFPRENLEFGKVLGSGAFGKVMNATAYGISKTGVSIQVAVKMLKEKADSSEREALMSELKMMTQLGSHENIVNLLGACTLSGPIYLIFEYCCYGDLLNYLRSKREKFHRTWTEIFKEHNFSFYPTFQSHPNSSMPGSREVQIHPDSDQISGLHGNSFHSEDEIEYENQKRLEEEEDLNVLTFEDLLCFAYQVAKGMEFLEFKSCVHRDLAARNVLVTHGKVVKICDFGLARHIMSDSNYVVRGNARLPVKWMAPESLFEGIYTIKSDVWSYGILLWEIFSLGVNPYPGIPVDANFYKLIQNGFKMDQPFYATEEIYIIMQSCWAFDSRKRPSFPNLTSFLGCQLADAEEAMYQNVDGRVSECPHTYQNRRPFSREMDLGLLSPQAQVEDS

KinomeScan kinase panel [3] = target: T3, KinomeScan kinase panel (Homo sapiens, UniProt P78356); conditions: PIP5K2B, 10 µM; read-out: score (%)
T3 construct: purchased DiscoveRx (KinomeScan)
T3 sequence (P78356 1-416): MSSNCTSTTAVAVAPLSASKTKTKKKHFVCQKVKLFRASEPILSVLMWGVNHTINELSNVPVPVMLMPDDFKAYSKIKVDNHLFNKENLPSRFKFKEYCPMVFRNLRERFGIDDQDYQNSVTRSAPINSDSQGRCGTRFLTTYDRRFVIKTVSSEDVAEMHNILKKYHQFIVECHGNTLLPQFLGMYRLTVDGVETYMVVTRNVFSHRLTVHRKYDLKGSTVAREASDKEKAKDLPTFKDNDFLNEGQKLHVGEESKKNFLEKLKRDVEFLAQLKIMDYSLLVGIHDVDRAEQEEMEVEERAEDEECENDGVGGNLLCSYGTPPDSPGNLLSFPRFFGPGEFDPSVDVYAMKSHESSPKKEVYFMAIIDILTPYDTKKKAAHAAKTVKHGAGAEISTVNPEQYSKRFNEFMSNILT

KinomeScan kinase panel [4] = target: T4, KinomeScan kinase panel (Homo sapiens, UniProt Q16584); conditions: MLK3, 10 µM
T4 construct: purchased DiscoveRx (KinomeScan)
T4 sequence (Q16584 whole entry): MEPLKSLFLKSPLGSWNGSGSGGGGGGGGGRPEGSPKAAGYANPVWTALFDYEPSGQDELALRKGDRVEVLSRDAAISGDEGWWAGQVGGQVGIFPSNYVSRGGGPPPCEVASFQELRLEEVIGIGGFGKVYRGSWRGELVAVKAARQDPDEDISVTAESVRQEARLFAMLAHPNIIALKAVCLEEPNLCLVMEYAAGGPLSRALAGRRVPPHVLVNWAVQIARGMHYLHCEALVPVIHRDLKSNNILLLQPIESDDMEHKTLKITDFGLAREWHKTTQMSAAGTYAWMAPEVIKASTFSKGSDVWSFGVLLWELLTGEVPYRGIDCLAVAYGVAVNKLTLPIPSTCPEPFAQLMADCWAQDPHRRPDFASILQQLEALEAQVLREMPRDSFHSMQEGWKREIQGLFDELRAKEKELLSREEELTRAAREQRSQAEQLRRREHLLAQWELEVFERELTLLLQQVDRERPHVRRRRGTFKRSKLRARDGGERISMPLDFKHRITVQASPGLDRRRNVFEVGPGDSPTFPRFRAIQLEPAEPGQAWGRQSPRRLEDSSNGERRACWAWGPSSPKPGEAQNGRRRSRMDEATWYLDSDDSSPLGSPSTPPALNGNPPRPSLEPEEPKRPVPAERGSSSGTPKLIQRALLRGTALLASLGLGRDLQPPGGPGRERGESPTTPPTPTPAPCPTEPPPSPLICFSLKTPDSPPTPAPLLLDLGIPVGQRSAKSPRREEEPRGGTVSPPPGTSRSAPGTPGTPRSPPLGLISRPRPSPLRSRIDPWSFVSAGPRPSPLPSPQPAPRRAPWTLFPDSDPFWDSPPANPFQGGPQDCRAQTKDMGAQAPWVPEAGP

KinomeScan kinase panel [5] = target: T5, KinomeScan kinase panel (Homo sapiens, UniProt Q86YV6); conditions: read-out: score (%)
T5 construct: purchased DiscoveRx (KinomeScan)
T5 sequence (Q86YV6 1-388): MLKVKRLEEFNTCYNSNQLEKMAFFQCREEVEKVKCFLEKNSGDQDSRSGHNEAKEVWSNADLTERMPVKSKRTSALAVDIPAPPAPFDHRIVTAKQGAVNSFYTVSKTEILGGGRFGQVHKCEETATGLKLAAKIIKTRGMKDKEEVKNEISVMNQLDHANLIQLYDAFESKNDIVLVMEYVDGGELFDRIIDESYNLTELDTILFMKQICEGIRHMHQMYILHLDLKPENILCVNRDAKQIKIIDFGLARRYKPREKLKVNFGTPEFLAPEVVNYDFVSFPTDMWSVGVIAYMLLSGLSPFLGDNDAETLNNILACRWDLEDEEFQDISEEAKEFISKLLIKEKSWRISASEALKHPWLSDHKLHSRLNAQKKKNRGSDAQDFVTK

KinomeScan kinase panel [6] = target: T6, KinomeScan kinase panel (Homo sapiens, UniProt Q8NI60); conditions: ADCK3, 10 µM; read-out: score (%)
T6 construct: purchased DiscoveRx (KinomeScan)
T6 sequence (Q8NI60 163-647): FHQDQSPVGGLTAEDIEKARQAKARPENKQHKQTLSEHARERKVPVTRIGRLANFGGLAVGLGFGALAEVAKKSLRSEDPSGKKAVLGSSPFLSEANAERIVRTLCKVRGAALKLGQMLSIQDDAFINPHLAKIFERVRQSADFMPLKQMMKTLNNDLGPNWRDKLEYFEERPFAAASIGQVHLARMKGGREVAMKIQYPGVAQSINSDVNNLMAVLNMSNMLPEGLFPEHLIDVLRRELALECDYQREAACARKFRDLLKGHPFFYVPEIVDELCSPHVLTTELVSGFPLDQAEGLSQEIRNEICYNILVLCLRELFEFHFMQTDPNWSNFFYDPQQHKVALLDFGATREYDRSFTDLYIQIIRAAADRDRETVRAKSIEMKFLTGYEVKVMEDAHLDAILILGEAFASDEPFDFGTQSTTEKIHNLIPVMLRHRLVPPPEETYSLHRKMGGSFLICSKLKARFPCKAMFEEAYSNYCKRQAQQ

KinomeScan kinase panel [7] = target: T7, KinomeScan kinase panel (Homo sapiens, UniProt Q9H2K8); conditions: read-out: score (%)
T7 construct: purchased DiscoveRx (KinomeScan)
T7 sequence (Q9H2K8 1-898): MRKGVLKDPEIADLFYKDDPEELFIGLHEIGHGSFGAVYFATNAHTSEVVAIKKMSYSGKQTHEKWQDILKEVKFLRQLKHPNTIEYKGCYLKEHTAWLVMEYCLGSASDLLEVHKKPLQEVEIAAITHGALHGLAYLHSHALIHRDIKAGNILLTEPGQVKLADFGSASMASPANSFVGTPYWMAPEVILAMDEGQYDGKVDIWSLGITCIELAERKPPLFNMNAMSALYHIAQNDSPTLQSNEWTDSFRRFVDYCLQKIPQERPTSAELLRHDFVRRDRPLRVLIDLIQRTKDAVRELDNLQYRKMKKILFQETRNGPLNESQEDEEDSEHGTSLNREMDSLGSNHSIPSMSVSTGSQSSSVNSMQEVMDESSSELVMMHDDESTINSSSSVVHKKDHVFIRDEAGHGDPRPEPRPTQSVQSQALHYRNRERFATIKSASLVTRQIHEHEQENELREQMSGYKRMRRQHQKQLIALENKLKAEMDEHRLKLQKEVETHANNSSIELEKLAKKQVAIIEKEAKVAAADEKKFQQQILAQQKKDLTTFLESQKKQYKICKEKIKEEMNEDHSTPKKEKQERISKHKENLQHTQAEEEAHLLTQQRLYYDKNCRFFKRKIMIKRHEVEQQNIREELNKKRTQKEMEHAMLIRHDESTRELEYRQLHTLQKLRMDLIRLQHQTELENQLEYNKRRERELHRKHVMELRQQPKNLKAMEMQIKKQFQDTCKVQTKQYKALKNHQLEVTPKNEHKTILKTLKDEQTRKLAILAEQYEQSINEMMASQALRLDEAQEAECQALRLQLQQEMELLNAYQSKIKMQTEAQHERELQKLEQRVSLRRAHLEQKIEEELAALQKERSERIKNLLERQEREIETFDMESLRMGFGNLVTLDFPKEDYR

Row | remaining binding at 10 µM (KinomeScan kinase panel [5]; SgK085, 10 µM) [%] | remaining binding at 10 µM (KinomeScan kinase panel [7]; TAOK3, 10 µM) [%] | Compound | remaining binding at 10 µM (KinomeScan kinase panel [1]) [%] | remaining binding at 10 µM (KinomeScan kinase panel [2]) [%] | remaining binding at 10 µM (KinomeScan kinase panel [3]) [%] | score (%) (KinomeScan kinase panel [4]) | remaining binding at 10 µM (KinomeScan kinase panel [5]; kinase SgK085, 10 µM) [%] | remaining binding at 10 µM (KinomeScan kinase panel [6]) [%] | remaining binding at 10 µM (KinomeScan kinase panel [7]; kinase TAOK3, 10 µM) [%] | remaining binding at 10 µM (KinomeScan kinase panel [5]; MYLK4, 10 µM) [%]
1 | – | – | CCN1CCN(Cc2ccc(NC(=O)c3ccc(C)c(NC(=O)c4cncc(-c5cccs5)c4)c3)cc2C(F)(F)F)CC1 [ALW-II-41-27] | 0 | 1.4 | > 30 | nb (Hits values higher than 30% were considered negative (no binding: nb)) | > 30 | > 30 | 2.8 | –
2 | 8.5 | 0.1 | CCN1CCN(Cc2ccc(NC(=O)c3ccc(C)c(/C=C/c4cnc5[nH]ccc5c4Cl)c3)cc2C(F)(F)F)CC1 [HG-6-63-01, (E)-3-(2-(4-chloro-1H-pyrrolo[2,3-b]pyridin-5-yl)vinyl)-N-(4-((4-ethylpiperazin-1-yl)methyl)-3-(trifluoromethyl)phenyl)-4-methylbenzamide] | 0 | 0.1 | 5 | 0.8% | – | > 30 | – | –
3 | – | – | CCN1CCN(Cc2ccc(NC(=O)c3ccc(C)c(C#Cc4cccnc4)c3)cc2C(F)(F)F)CC1 [XMD15-44] | 0 | 0.15 | 58 | 17% | – | > 30 | 0 | > 30
